# pIC50: −log10 of the molar value.
# What was measured:
# [1] = system: rats with myocardial infarction induced by coronary artery ligation; test: J point of ECG in rats with myocardial infarction induced by coronary artery ligation; format: in vivo, SD rats
# Protocol: […] Aspirin: 30 mg/kg body-weight. Clean male SD rats were taken and placed in groups randomly according to the body-weight, including pseudo operation group (distilled water), model group (distilled water), aspirin group, (S)-salvianolic acid T low-dose group, (S)-salvianolic acid T high-dose group, and there were 10 rats in each group. Each group of rats were administrated by gastric administration once a day, continuously for 10 days. […] Recording standard II lead ECG at 5 minutes before surgery, 0 s, 1 min, 5 min, 15 min, 1 h, 4 h after the ligation, to investigate the changes of J point of ECG.
# [2] = system: rats with myocardial infarction induced by coronary artery ligation; test: Blood biochemical index of rats with myocardial infarction induced by coronary artery ligation; format: in vivo, SD rats; settings: for CK / CK-MB / LD / MDA / SOD: serum
# [3] = system: rats with myocardial infarction induced by coronary artery ligation; test: Myocardial infarction rate (TTC staining) after coronary artery ligation; format: in vivo, SD rats; settings: for myocardial infarction rate: compared with the model group, P<0.05
# Protocol: Clean male SD rats were taken and placed in groups randomly according to the body-weight, including pseudo operation group (distilled water), model group (distilled water), aspirin group, (S)-salvianolic acid T low-dose group, (S)-salvianolic acid T high-dose group, and there were 10 rats in each group. Each group of rats were administrated by gastric administration once a day, continuously for 10 days. […] Recording standard II lead ECG at 5 minutes before surgery, 0 s, 1 min, 5 min, 15 min, 1 h, 4 h after the ligation, to investigate the changes of J point of ECG. Taking out the heart immediately after the end of the experiment, washing away the blood with normal saline, cutting off the atrium and the bottom of the blood vessels, weighing the mass of the ventricle, cutting the ventricle into 5 pieces on average along the atrioventricular groove and putting them into 1% (w/v) TTC solution, dyeing in the water bath at a constant temperature of 37 °C for 5 min, taking digital photos firstly after taking them out, then separating the unstained parts (that is, the infarct parts) and weighing to calculate the percentage of them in the mass of total ventricular (myocardial infarction percentage), and performing t test with ischemia model group. The formula for calculating the infarct percentage is as follows: Infarct percentage (%)=(the mass of pale areas/the mass of the ventricle)×100%
# [4] = system: L929 cells induced by TGF-β1; test: Inhibition of L929 cell proliferation induced by TGF-β1 (MTT); format: cell-based; settings: Mus musculus, L929, 72 h, 2 μg/L TGF-β1, 72 h, MTT method
# Protocol: L929 cells with a cell population of 5×10^7/L adjusted by DMEM culture solution containing 10% fetal bovine serum were seeded into 96 well plate, cultured for 24 h. Supplementing the same culture medium containing 2 μg/L TGF-β1 and (S)/(R)-salvianolic acid T of different concentrations. There were 6 multiple pores in each group, final concentration of (S)/(R)-salvianolic acid T was set as 0, 1, 3, 10, 20, 40, 80, 150 μmol/L. Removing medium after being cultured for 72 h, assaying the cell activity by MTT method.
# [5] = DPPH free-radical scavenging reaction
# Protocol: Absorbance of the reaction solution was measured at 517 nm. In this study, vitamin C was regarded as a positive control. Free-radical scavenging rate was calculated in accordance with the following equation: Free-radical scavenging rate (%)=[1−Asample/Acontrol)/Acontrol]×100% Wherein, the Asample means the absorbance of the tested samples, and Acontrol means the absorbance of blank control.
# [6] = Determination of reducing capacity (potassium ferricyanide / ferric chloride, absorbance at 700 nm)
# Protocol: 0.5 ml of 200 mM phosphate buffer (pH6.8) containing different concentrations of the (S)/(R)-salvianolic acid T and 0.5 ml of 1.0% (w/v) potassium ferricyanide solution were sucked respectively and cooled on an ice bath after being heated on a water bath (50[…]) for 20 min. 0.5 ml of 10% trichloroacetic acid solution was added and centrifuged at […] for 10 min. 1.0 ml of the resulting supernatant was taken, into which 1.0 ml of distilled water and 0.2 ml of 0.1% (w/v) ferric chloride solution were added, stood still for 10 min and the absorbance was measured at 700 nm. Meanwhile, the blank experiment was carried out. Vitamin C is a strongly reducing substance, acting as positive control in this study. Reducing capacity of the sample is represented by subtracting the absorbance of the blank control from the absorbance of the tested sample. Thus, it means the higher absorbance, the stronger reducing capacity.
# [7] = system: mice pulmonary fibrosis induced by bleomycin; test: Anti-pulmonary fibrosis experiment in mice induced by bleomycin; format: in vivo, Kunming mice; settings: 3 weeks
# Protocol: Dividing the 40 mice into 4 groups: □ normal control group, given nasal dripping of normal saline, drenched with normal saline; □ model control group:given nasal dripping of bleomycin, drenched with normal saline; □(S)-salvianolic acid T group (16 mg/kg): given nasal dripping of bleomycin, drenched with (S)-salvianolic acid T solution; □(R)-salvianolic acid T group (16 mg/kg): given nasal dripping of bleomycin, drenched with (R)-salvianolic acid T solution; 10 mice in each group.
# On the first day of the experiment, the mice were anesthetized with chloral hydrate, each mouse was given disposable nasal dripping of 50 μg bleomycin to establish the pulmonary fibrosis model. On the second day of the experiment, two treatment groups were drenched with (S)/(R)-salvianolic acid T, the model group and the normal group were drenched with equal volume of normal saline, once each day, 3 consecutive weeks. On the 21th day of the experiment, serum was separated from the blood collected from the orbital vein to detect TGF-β1, the mice were killed to take lungs, ground with double distilled water (the ratio of lungs and double distilled water was 1:5 (w/v)) into tissue homogenate, centrifuged to detect the MDA, superoxide dismutase (SOD), catalase (CAT), peroxidase (POD) in the tissues.
# [8] = high-dose group, dosage 10 mg/kg
# [9] = compared with positive control vitamin C
# [10] = sample 0.625 μg/ml, 100 μM DPPH, 20 min, 25° C.
# [11] = 16 mg/kg, lung tissue homogenate
smiles,measurement,setting,value
"CC(=O)Oc1ccccc1C(=O)O [Aspirin, reference compound]",J point,"[1]; aspirin group, dosage 30 mg/kg, gastric once a day for 10 days, before operation",−0.012 ± 0.005 mv
same,J point,"[1]; aspirin group, dosage 30 mg/kg, 1 min after operation",0.172 ± 0.057 mv
same,J point,"[1]; aspirin group, dosage 30 mg/kg, 5 min after operation",0.184 ± 0.024 mv
same,J point,"[1]; aspirin group, dosage 30 mg/kg, 15 min after operation",0.166 ± 0.025 mv
same,J point,"[1]; aspirin group, dosage 30 mg/kg, 1 h after operation",0.169 ± 0.036 mv
same,J point,"[1]; aspirin group, dosage 30 mg/kg, 4 h after operation",0.172 ± 0.021 mv
same,Na^+—K^+-ATPase,"[2]; aspirin group, dosage 30 mg/kg",0.005 ± 0.001 μmolPi/10^7 RBC/h
same,CK,"[2]; aspirin group, dosage 30 mg/kg",1.01 ± 0.16 U/ml
same,CK-MB,"[2]; aspirin group, dosage 30 mg/kg",841.9 ± 20.3 U/L
same,LD,"[2]; aspirin group, dosage 30 mg/kg",1.75 ± 0.17 mmol/L
same,MDA,"[2]; aspirin group, dosage 30 mg/kg",6.84 ± 0.97 nmol/mL
same,SOD,"[2]; aspirin group, dosage 30 mg/kg",221.1 ± 24.7 U/ml
same,myocardial infarction rate,[3]; aspirin group (30 mg/kg),significantly reduce the myocardial infarction rate
O=C(/C=C/c1ccc(O)c(O)c1/C(=C\c1ccc(O)c(O)c1)C(=O)O)O[C@@H](Cc1ccc(O)c(O)c1)C(=O)O [(S)-salvianolic acid T],J point,"[1]; high-dose group, dosage 10 mg/kg, gastric once a day for 10 days, before operation",−0.014 ± 0.005 mv
same,J point,"[1]; high-dose group, dosage 10 mg/kg, 1 min after operation",0.169 ± 0.033 mv
same,J point,"[1]; high-dose group, dosage 10 mg/kg, 5 min after operation",0.146 ± 0.031 mv
same,J point,"[1]; high-dose group, dosage 10 mg/kg, 15 min after operation",0.160 ± 0.027 mv
same,J point,"[1]; high-dose group, dosage 10 mg/kg, 1 h after operation",0.170 ± 0.014 mv
same,J point,"[1]; high-dose group, dosage 10 mg/kg, 4 h after operation",0.153 ± 0.028 mv
same,J point,"[1]; low-dose group, dosage 5 mg/kg, gastric once a day for 10 days, before operation",−0.011 ± 0.003 mv
same,J point,"[1]; low-dose group, dosage 5 mg/kg, 1 min after operation",0.176 ± 0.050 mv
same,J point,"[1]; low-dose group, dosage 5 mg/kg, 5 min after operation",0.204 ± 0.010 mv
same,J point,"[1]; low-dose group, dosage 5 mg/kg, 15 min after operation",0.185 ± 0.096 mv
same,J point,"[1]; low-dose group, dosage 5 mg/kg, 1 h after operation",0.206 ± 0.036 mv
same,J point,"[1]; low-dose group, dosage 5 mg/kg, 4 h after operation",0.194 ± 0.042 mv
same,Na^+—K^+-ATPase,[2]; [8],0.005 ± 0.006 μmolPi/10^7 RBC/h
same,Na^+—K^+-ATPase,"[2]; low-dose group, dosage 5 mg/kg",0.004 ± 0.001 μmolPi/10^7 RBC/h
same,CK,[2]; [8],0.88 ± 0.22 U/ml
same,CK-MB,[2]; [8],846.7 ± 144.2 U/L
same,LD,[2]; [8],1.65 ± 0.24 mmol/L
same,MDA,[2]; [8],6.72 ± 1.54 nmol/mL
same,SOD,[2]; [8],241.7 ± 19.8 U/ml
same,CK,"[2]; low-dose group, dosage 5 mg/kg",1.18 ± 0.29 U/ml
same,CK-MB,"[2]; low-dose group, dosage 5 mg/kg",970.9 ± 225.1 U/L
same,LD,"[2]; low-dose group, dosage 5 mg/kg",1.67 ± 0.23 mmol/L
same,MDA,"[2]; low-dose group, dosage 5 mg/kg",7.46 ± 1.07 nmol/mL
same,SOD,"[2]; low-dose group, dosage 5 mg/kg",220.3 ± 32.6 U/ml
same,pIC50,[4],4.58
same,free-radical scavenging compared with vitamin C,[5]; [9],much higher free-radical scavenging than that of the vitamin C
same,Free-radical scavenging rate,[5]; [10],10.32 ± 0.81%
same,Free-radical scavenging rate,[5]; sample 1.25 μg/ml,28.77 ± 2.26%
same,Free-radical scavenging rate,[5]; sample 2.5 μg/ml,44.22 ± 1.95%
same,Free-radical scavenging rate,[5]; sample 5 μg/ml,86.01 ± 8.92%
same,Free-radical scavenging rate,[5]; sample 10 μg/ml,98.97 ± 5.41%
same,reducing capacity compared with vitamin C,[6]; [9],much stronger than that of vitamin C
same,reducing capacity (absorbance at 700 nm minus blank control),[6]; sample 3.125 μg/ml,0.157 ± 0.027
same,reducing capacity (absorbance at 700 nm minus blank control),[6]; sample 6.25 μg/ml,0.215 ± 0.011
same,reducing capacity (absorbance at 700 nm minus blank control),[6]; sample 12.5 μg/ml,0.039 ± 0.012
same,reducing capacity (absorbance at 700 nm minus blank control),[6]; sample 25 μg/ml,0.771 ± 0.023
same,reducing capacity (absorbance at 700 nm minus blank control),[6]; sample 50 μg/ml,1.573 ± 0.036
same,Serum TGF-β1,"[7]; 16 mg/kg drenched once each day, day 21",263 ± 35 ng/L
same,CAT,[7]; [11],24.9 ± 2.3 U/g
same,MDA,[7]; [11],324 ± 33 µg/g
same,POD,[7]; [11],15.3 ± 2.1 U/g
same,SOD,[7]; [11],57.3 ± 4.9 U/g
same,Tissue TGF-β1,[7]; [11],541 ± 51 pg/g
same,effect on preventing acute myocardial infarction induced by coronary artery ligation,"[3]; high-dose group compared with aspirin group, FIG. 11 heart biopsy",equal effect
same,myocardial infarction rate,[3]; high-dose group,significantly reduce the myocardial infarction rate
"O=C1O[C@H]([C@@H](O)CO)C(O)=C1O [Vitamin C, reference compound]",Free-radical scavenging rate,[5]; [10],8.02 ± 0.47%
same,Free-radical scavenging rate,[5]; sample 1.25 μg/ml,15.56 ± 1.81%
same,Free-radical scavenging rate,[5]; sample 2.5 μg/ml,21.32 ± 1.89%
same,Free-radical scavenging rate,[5]; sample 5 μg/ml,56.29 ± 5.93%
same,Free-radical scavenging rate,[5]; sample 10 μg/ml,79.51 ± 7.26%
